Test results as given in patent US20230346661A1, “Anhydrous Azelaic Acid Topical Formulations” (Baek Clinical Inc., priority 2020, published 2023).
Values belong to the compound of their own block, whether it stands above or below them.

What was measured:
[1] = Solubility of optional additional components in non-aqueous solvents; format: physicochemical
From the text: Additional ingredients were chosen for their compatibility with (e.g., miscibility in) 1,3 propanediol, 1,2 propanediol, and 1,3 butanediol.

[2] = system: transepidermal water loss; settings: in vivo; cited from earlier work
erythema (skin redness) = settings: concentrations of 0.2%; cited from earlier work
[3] = Maximum concentration of azelaic acid solubilized with heat in a given solvent without precipitation upon cooling; format: physicochemical; settings: in dimethyl isosorbide, relative to the approximately 10 to 12% of the diols
From the text: In order to determine a desirable ratio of azelaic acid to urea for certain compositions of this disclosure, the maximum concentration for azelaic acid that can be solubilized is first determined, with heat exposure, in a given solvent without precipitation upon cooling.

[4] = Ability of polyol solvents to solubilize azelaic acid; format: physicochemical
Description: A series of experiments were performed to assess and optimize the components of the subject formulations.

[5] = cited from earlier work
melasma = settings: cited from earlier work

Compound: CC(C)(CO)[C@@H](O)C(=O)NCCCO [Panthenol]
concentration at which inhibition of transepidermal water loss is apparent [2]: ≥ 1%

Compound: COc1cc(CC(C(C)=O)C(C)=O)ccc1O [Acetyl zingerone]
solubility ([1]; at 0.5-1% in 1,3 propanediol, 1,2 propanediol and 1,3 butanediol): readily soluble

Compound: O=C(O)CCCCCCCC(=O)O [azelaic acid]
maximum concentration for azelaic acid that can be solubilized [3]: significantly lower
ability to solubilize azelaic acid ([4]; solvent 1,2-hexanediol used alone): moderate
ability to solubilize azelaic acid ([4]; solvent 1,2-propanediol (propylene glycol)): moderate
ability to solubilize azelaic acid ([4]; solvent 1,3-butanediol (butylene glycol)): moderate
ability to solubilize azelaic acid ([4]; solvent 1,3-propanediol): moderate
ability to solubilize azelaic acid ([4]; solvent 1,5-pentanediol (pentylene glycol)): moderate
ability to solubilize azelaic acid ([4]; solvent dimethyl isosorbide): very limited
ability to solubilize azelaic acid ([4]; solvents glycerin and diglycerin): moderate and low
solubility in cosmetic oils ([5]; cosmetic oils): little or no solubility
stability of azelaic acid in alcohol ([5]; ethyl alcohol, normal temperatures): unstable
maximum azelaic acid in a water and azelaic acid solution ([5]; water): about 0.24 % by weight (w/w)
treatment differences in overall rating, reduction in lesion size and pigmentary intensity (melasma; 20% azelaic acid compared to 4% hydroquinone): no significant treatment differences
allergic sensitization or exogenous ochronosis (melasma; 20% azelaic acid): no allergic sensitization or exogenous ochronosis observed
good or excellent results in lightening melasma (melasma; 20% azelaic acid): 65%

The next lines start with results.

solubility ([1]; in 1,3-propanediol): shows solubility
Compound: CC1(C)[C@@H](O[C@H]2O[C@H](C(=O)O)[C@@H](O)[C@H](O)[C@H]2O[C@@H]2O[C@H](C(=O)O)[C@@H](O)[C@H](O)[C@H]2O)CC[C@]2(C)[C@H]3C(=O)C=C4[C@@H]5C[C@@](C)(C(=O)O)CC[C@]5(C)CC[C@@]4(C)[C@]3(C)CC[C@@H]12 [glycyrrhizic acid]

solubility ([1]; at a concentration of 0.2% in 1,3 propanediol, 1,2 propanediol and 1,3 butanediol): soluble
Compound: madecassoside
ability to reduce erythema (skin redness) (erythema (skin redness)): desirable ability to reduce erythema
